Assay results reported in ChEMBL document CHEMBL4673280, “Discovery and SAR studies of 2-alkyl-3-phenyl-2,4,5,6,7,8-hexahydropyrazolo[3,4-d]azepines as 5-HT inhibitors leading to the identification of a clinical candidate” (Bioorg Med Chem Lett, 2021).

What was measured:
[1] = target: 5-hydroxytryptamine receptor 2A (Homo sapiens, UniProt P28223); assay: Displacement of [3H]-ketanserin from human 5-HT2A receptor by competitive radioligand binding assay
[2] = target: T1, Adrenergic receptor alpha-1 (Rattus norvegicus, UniProt P15823+P23944+P43140); assay: Displacement of […] from alpha1 adrenergic receptor in rat cortex membrane incubated for 60 mins by competitive radioligand binding assay; assay type: cell membranes
T1 sequence (P15823 whole entry): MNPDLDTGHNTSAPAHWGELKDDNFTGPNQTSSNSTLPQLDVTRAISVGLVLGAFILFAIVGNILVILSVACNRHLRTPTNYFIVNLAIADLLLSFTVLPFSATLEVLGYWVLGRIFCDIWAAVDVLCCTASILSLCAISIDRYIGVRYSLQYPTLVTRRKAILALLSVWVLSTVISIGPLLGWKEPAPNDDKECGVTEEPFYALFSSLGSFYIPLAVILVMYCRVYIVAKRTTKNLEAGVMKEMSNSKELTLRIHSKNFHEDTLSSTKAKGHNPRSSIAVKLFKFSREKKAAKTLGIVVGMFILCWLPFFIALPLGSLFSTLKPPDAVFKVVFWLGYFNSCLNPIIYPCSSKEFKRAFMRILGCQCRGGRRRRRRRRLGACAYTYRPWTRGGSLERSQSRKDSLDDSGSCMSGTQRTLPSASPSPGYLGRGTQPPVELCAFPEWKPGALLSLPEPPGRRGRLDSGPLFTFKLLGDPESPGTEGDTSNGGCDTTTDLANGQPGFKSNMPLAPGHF
T1 sequence (P23944 whole entry): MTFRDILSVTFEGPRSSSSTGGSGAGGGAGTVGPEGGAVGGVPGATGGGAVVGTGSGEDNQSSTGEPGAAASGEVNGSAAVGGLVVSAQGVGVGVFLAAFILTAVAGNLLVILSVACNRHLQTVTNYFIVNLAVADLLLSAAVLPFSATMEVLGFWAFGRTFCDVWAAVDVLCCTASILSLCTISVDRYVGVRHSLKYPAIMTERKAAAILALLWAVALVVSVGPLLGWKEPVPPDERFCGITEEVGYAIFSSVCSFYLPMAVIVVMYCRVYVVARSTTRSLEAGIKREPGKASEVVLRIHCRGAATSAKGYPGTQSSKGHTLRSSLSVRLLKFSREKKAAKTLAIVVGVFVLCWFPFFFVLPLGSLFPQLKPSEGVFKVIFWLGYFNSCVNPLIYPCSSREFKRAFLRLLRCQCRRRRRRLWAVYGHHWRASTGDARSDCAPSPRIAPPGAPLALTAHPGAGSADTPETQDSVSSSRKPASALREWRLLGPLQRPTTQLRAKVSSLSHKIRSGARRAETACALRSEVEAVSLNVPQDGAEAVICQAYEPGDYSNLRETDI
T1 sequence (P43140 whole entry): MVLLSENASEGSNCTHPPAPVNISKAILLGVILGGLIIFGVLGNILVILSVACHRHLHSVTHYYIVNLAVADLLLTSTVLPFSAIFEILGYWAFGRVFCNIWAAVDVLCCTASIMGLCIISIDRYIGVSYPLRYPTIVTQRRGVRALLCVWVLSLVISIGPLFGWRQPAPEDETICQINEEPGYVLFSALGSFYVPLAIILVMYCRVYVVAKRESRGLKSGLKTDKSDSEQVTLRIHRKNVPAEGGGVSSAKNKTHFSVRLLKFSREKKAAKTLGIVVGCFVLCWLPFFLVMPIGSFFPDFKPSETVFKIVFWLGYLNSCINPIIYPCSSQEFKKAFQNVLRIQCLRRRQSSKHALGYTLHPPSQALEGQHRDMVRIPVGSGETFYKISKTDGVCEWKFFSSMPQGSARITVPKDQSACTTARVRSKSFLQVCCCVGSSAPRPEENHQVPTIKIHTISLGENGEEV

[3] = target: 5-hydroxytryptamine receptor 2B (Homo sapiens, UniProt P41595); assay: Displacement of [3H]-ketanserin from human 5-HT2B receptor by competitive radioligand binding assay
[4] = target: 5-hydroxytryptamine receptor 7 (Rattus norvegicus, UniProt P32305); assay: Displacement of [3H]-CT from rat 5-HT7 receptor expressed in HEK293 cells by competitive radioligand binding assay; assay type: cell-based
[5] = target: T2, 5-hydroxytryptamine receptor 2C (Homo sapiens, UniProt P28335); assay: Displacement of [3H]-ketanserin from human 5-HT2C receptor by competitive radioligand binding assay
T2 sequence (P28335 whole entry): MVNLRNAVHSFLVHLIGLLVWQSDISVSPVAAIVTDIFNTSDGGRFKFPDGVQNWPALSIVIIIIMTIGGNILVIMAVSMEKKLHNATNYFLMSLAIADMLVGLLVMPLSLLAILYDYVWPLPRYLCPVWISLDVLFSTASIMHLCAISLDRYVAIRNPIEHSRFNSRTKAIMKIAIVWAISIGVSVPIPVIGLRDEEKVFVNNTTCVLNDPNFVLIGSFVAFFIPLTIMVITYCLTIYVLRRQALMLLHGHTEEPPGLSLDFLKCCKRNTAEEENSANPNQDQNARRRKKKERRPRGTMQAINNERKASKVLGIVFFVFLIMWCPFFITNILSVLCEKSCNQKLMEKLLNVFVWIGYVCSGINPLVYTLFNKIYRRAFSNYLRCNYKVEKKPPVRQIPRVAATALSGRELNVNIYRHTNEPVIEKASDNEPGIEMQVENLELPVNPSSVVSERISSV

Sequence of 5-hydroxytryptamine receptor 2A (P28223 whole entry): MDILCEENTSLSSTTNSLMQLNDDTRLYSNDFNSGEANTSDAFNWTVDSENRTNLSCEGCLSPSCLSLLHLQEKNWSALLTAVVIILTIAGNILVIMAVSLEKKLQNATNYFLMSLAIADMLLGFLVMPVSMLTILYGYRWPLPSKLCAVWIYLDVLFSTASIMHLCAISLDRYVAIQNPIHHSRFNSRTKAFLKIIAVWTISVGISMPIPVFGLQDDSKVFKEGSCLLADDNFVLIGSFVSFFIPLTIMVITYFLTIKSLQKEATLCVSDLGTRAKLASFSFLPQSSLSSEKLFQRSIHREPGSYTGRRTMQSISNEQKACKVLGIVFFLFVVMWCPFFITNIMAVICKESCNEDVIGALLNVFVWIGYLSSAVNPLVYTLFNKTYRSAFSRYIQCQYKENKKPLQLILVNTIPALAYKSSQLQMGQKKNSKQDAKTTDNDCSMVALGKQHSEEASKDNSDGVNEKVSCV
Sequence of 5-hydroxytryptamine receptor 7 (P32305 whole entry): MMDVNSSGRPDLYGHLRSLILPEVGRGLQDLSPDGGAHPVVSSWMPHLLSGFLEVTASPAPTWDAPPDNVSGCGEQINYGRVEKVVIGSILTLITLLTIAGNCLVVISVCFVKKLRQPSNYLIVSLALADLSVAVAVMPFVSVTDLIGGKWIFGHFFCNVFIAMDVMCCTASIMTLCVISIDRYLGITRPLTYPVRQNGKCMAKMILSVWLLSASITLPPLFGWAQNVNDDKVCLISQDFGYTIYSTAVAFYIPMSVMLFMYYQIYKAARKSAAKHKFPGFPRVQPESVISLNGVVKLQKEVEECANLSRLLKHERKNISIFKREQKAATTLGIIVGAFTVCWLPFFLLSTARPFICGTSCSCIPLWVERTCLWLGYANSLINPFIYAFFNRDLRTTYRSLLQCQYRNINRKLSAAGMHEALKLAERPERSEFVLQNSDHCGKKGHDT
Sequence of 5-hydroxytryptamine receptor 2B (P41595 whole entry): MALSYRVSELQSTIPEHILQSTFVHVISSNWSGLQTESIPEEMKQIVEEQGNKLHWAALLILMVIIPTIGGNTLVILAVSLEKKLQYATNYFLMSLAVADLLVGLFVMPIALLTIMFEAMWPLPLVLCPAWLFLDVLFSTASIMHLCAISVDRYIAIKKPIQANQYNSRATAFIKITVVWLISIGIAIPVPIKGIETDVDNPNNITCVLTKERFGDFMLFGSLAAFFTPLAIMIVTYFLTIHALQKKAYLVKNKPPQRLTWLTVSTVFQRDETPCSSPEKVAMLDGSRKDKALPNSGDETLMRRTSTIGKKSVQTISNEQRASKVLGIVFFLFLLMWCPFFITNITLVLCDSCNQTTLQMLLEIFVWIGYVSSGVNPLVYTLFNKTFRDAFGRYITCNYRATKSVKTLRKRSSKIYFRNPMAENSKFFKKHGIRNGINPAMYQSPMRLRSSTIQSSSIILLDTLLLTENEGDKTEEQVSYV

Compound	Ki [1] [nM]	Ki [2] [nM]	Ki [3] [nM]	Ki [4] [nM]	Ki [5] [nM]
Fc1ccc(-c2c3c(nn2C2CC2)CCNCC3)cc1	6	–	–	–	–
CC(C)n1nc2c(c1-c1ccc(C(F)(F)F)cc1)CCNCC2	2	130	5	15	–
CC(C)n1nc2c(c1-c1ccc(OC(F)(F)F)cc1)CCNCC2	40	–	20	5000	990
CC(C)n1nc2c(c1-c1ccccc1)CCNCC2	24	530	19	28	130
c1ccc(-c2c3c(nn2C2CCC2)CCNCC3)cc1	3	500	3	–	–
CC(C)(C)n1nc2c(c1-c1ccccc1)CCNCC2	19	–	43	–	85
Fc1ccc(-c2c3c(nn2C2CCC2)CCNCC3)cc1	1	220	4	–	45
c1ccc(-c2c3c(nn2C2CC2)CCNCC3)cc1	30	600	20	20	30
CCn1nc2c(c1-c1ccccc1)CCNCC2	60	–	75	140	1200
